Experiments:
[1] = Particle size distribution of SHR0302 by laser diffraction (Malvern); format: physicochemical; settings: SHR0302 used in Example 1, FIG. 1
Excerpt: In the pharmaceutical compositions of the present invention, the active ingredient is present as small particles. Particle size of the drug can be assessed using laser diffraction methods. Laser diffraction is recognized by standards and guidance agencies including ISO and ASTM and is widely used to determine particle size distributions. In conducting the assessment, the sample is passed through a laser beam, which results in laser light scattered at a range of angles. Detectors placed at fixed angles measure the intensity of light scattered at that position. A mathematical model is then applied to generate a particle size distribution. The particle size values reported herein are determined by using a liquid or wet dispersion method.
In particle size determinations, the median value is defined as the value where half of the population resides above this point, and half resides below this point. For particle size distributions the median is called the D50. The D50 is the size that splits the distribution with half above and half below this diameter. The distribution width may also be characterized by citing one, two or three values on the x-axis, typically some combination of the D10, D50, and D90. The D50, the median, has been defined above as the diameter where half of the population lies below this value. Similarly, 90 percent of the distribution lies below the D90, and 10 percent of the population lies below the D10.
A pharmaceutical composition comprising 3% SHR0302 suspended in dimethicone was prepared. The primary particle size distribution of the SHR0302 is characterized by a D10 value of less than about 0.25 μm; a D50 value of less than about 0.7 μm; and a D90 value of less than about 5 μm. The pharmaceutical composition was a transparent solution due to the particles being too small to scatter visible light. A Malvern Metasizer Model 3000 using the Hydro MV dispersion unit was used to determine the particle size distribution profile of SHR0302. […]

JAK1 = JAK1 (Homo sapiens, UniProt P23458); settings: cited from earlier work
[2] = orally administrated, women; cited from earlier work

JAK1, sequence (P23458 whole entry): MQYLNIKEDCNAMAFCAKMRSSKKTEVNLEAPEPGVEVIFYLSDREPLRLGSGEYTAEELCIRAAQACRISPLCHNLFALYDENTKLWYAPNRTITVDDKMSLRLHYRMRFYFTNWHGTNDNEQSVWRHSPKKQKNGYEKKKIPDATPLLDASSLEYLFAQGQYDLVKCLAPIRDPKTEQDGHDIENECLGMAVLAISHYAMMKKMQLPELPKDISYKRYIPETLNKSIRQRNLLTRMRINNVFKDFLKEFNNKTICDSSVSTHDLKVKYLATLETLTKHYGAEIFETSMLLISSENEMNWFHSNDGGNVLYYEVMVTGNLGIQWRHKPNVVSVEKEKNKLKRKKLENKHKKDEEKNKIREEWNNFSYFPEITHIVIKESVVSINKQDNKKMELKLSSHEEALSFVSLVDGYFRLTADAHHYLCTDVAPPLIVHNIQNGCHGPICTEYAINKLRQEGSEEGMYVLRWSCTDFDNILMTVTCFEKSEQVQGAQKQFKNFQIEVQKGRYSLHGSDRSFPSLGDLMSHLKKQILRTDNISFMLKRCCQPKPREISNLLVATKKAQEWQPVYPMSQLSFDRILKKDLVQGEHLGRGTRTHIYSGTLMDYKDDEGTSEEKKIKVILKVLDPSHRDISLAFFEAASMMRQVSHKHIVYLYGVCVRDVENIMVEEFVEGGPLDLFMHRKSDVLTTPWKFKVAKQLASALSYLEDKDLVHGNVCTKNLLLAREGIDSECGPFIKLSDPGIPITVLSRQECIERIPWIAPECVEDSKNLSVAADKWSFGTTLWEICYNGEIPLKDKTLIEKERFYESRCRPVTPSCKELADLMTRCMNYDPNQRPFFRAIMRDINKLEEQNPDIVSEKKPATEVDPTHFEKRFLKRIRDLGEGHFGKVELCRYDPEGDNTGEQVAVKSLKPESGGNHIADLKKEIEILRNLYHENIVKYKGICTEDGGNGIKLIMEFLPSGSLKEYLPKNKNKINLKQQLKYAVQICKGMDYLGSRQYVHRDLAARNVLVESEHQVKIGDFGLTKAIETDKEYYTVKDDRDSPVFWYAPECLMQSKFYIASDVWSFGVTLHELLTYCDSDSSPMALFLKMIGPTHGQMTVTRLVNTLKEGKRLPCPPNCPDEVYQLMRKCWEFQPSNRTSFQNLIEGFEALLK

| SMILES | primary particle size D10 [1] | primary particle size D50 [1] | primary particle size D90 [1] | inhibition of JAK1 (JAK1) | efficacy in treatment of acne [2] |
| --- | --- | --- | --- | --- | --- |
| COc1nsc(NC(=O)N2C[C@H]3C[C@H](N(C)c4ncnc5[nH]ccc45)C[C@H]3C2)n1 [SHR0302, (3aR,5S,6aS)-N-(3-methoxyl-1,2,4-thiadiazol-5-yl)-5-(methyl(7H-pyrrolo[2,3-d]pyrimidin-4-yl)amino)hexahydrocyclopenta[c]pyrrole-2(1H)-carboxamide] | less than 0.25 μm | less than 0.7 μm | less than 5 μm | potent |  |
| CC(=O)S[C@@H]1CC2=CC(=O)CC[C@]2(C)[C@H]2CC[C@@]3(C)[C@@H](CC[C@@]34CCC(=O)O4)[C@H]12 [spironolactone, 17-hydroxy-7α-mercapto-3-oxo-17α-pregn-4-ene-21-carboxylic acid γ-lactone acetate] |  |  |  |  | efficacious |

Reference: US20230414511A1, “COMPOSITIONS AND METHODS FOR DEEP DERMAL DRUG DELIVERY” (ARCUTIS BIOTHERAPEUTICS, INC., priority 2020, published 2023)
